Measurements reported in patent US9833497B2, “Human originated EGF domain proteins and use of the same” (CHENGDU SOURCEBIO LIMITED-LIABILITY COMPANY, priority 2013, dated 2017).

Experiments:
Assay type in all cases: cell-based
[1] = test system: E. coli DH5α; assay: Antibacterial activity: MIC and growth curve against E. coli DH5α in 96-well plate; conditions: minimal inhibitory concentration against E. coli DH5α; 96-well plate, 5×10^5 CFU/mL, 37° C., judged after 8 h
How it was run: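 Log-phase DH5α (OD600 about 0.5, 37° C, 185 rpm in LB) was pelleted, resuspended in fresh LB and seeded at 5×10^5 CFU/mL with recombinant protein at 50, 25 and 12.5 μg/mL (two-fold series), in triplicate. Plates were shaken at 175 rpm, 37° C, and OD600 was read every 30 min. MIC was the lowest concentration with no growth.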

[2] = test system: E. coli BL21; assay: MIC against Gram-negative bacteria: E. coli BL21; conditions: 5×10^5 CFU/mL
How it was run: (§1)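 Antibacterial activity of purified human EGF domain proteins: two-fold concentration series, triplicate wells, LB broth, 5×10^5 CFU/mL bacteria, 37° C shaking incubation. The lowest concentration without growth defines the MIC.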

[3] = test system: Pseudomonas aeruginosa; assay: MIC against Gram-negative bacteria: Pseudomonas aeruginosa; conditions: 5×10^5 CFU/mL; for MIC against P. aeruginosa: Pseudomonas aeruginosa
How it was run: as §1

[4] = test system: Klebsiella pneumonia; assay: MIC against Gram-negative bacteria: Klebsiella pneumonia; conditions: 5×10^5 CFU/mL; for MIC against K. pneumonia: Klebsiella pneumonia
How it was run: as §1

[5] = test system: Enterobacter cloacae; assay: MIC against Gram-negative bacteria: Enterobacter cloacae; conditions: 5×10^5 CFU/mL; for MIC against E. cloacae: Enterobacter cloacae
How it was run: as §1

[6] = test system: Aeromonas hydrophila; assay: MIC against Gram-negative bacteria: Aeromonas hydrophila; conditions: 5×10^5 CFU/mL; for MIC against A. hydrophila: Aeromonas hydrophila
How it was run: as §1

[7] = test system: Citrobacter diversus; assay: MIC against Gram-negative bacteria: Citrobacter diversus; conditions: 5×10^5 CFU/mL; for MIC against C. diversus: Citrobacter diversus
How it was run: as §1

[8] = test system: Moraxella catarrhalis; assay: MIC against Gram-negative bacteria: Moraxella catarrhalis; conditions: 5×10^5 CFU/mL; for MIC against M. catarrhalis: Moraxella catarrhalis
How it was run: as §1

[9] = test system: Proteus mirabilis; assay: MIC against Gram-negative bacteria: Proteus mirabilis; conditions: 5×10^5 CFU/mL; for MIC against P. mirabilis: Proteus mirabilis
How it was run: as §1

[10] = test system: Proteus vulgaris; assay: MIC against Gram-negative bacteria: Proteus vulgaris; conditions: 5×10^5 CFU/mL; for MIC against P. vulgaris: Proteus vulgaris
How it was run: as §1

[11] = test system: Serratia marcescens; assay: MIC against Gram-negative bacteria: Serratia marcescens; conditions: 5×10^5 CFU/mL; for MIC against S. marcescens: Serratia marcescens
How it was run: as §1

[12] = 10 h cultivation at 37° C., two-fold serial dilution

“PRT879 (TLKQCASAPCRNGGVCREGWNRFICDCIGTGFLGRVCE; listed as Homo sapiens)” was tested. Which MIC [1] did it give?
The MIC was 25 µg/mL.

What about the “MIC (μg/mL) E. coli BL21” value ([2]; 10 h cultivation at 37° C.) of the same substance?
Its value is 50 µg/mL.

What about the “MIC (μg/mL) P. aeruginosa” value ([3]; 10 h cultivation at 37° C.) of the same substance?
The value was 12.5 µg/mL.

And the “MIC (μg/mL) K. pneumonia” value ([4]; 10 h cultivation at 37° C.)?
The value was 12.5 µg/mL.

What about the “MIC (μg/mL) E. cloacae” value ([5]; 10 h cultivation at 37° C.) of the same substance?
Its value is 25 µg/mL.

And the “MIC (μg/mL) A. hydrophila” value ([6]; 10 h cultivation at 37° C.)?
Its value is 12.5 µg/mL.

And the “MIC (μg/mL) C. diversus” value ([7]; 10 h cultivation at 37° C.)?
The value was 25 µg/mL.

And the “MIC (μg/mL) M. catarrhalis” value ([8]; 10 h cultivation at 37° C.)?
The value was 12.5 µg/mL.

What about the “MIC (μg/mL) P. mirabilis” value ([9]; 10 h cultivation at 37° C.) of the same substance?
The value was 12.5 µg/mL.

And the “MIC (μg/mL) P. vulgaris” value ([10]; 10 h cultivation at 37° C.)?
The value was 12.5 µg/mL.

What about the “MIC (μg/mL) S. marcescens” value ([11]; 10 h cultivation at 37° C.) of the same substance?
The value was 25 µg/mL.

Which results are given for “PRT213 (QNCTKTPCLPNAKCEIRNGIEACYCNMGFSGNGVTICE; listed as Homo sapiens)”?
MIC [1]: 12.5 µg/mL; MIC (μg/mL) E. coli BL21 ([2]; 10 h cultivation at 37° C.): 12.5 µg/mL; MIC (μg/mL) P. aeruginosa ([3]; 10 h cultivation at 37° C.): 12.5 µg/mL; MIC (μg/mL) K. pneumonia ([4]; 10 h cultivation at 37° C.): 12.5 µg/mL; MIC (μg/mL) E. cloacae ([5]; 10 h cultivation at 37° C.): 50 µg/mL; MIC (μg/mL) A. hydrophila ([6]; 10 h cultivation at 37° C.): 12.5 µg/mL; MIC (μg/mL) C. diversus ([7]; 10 h cultivation at 37° C.): 50 µg/mL; MIC (μg/mL) M. catarrhalis ([8]; 10 h cultivation at 37° C.): 12.5 µg/mL; MIC (μg/mL) P. mirabilis ([9]; 10 h cultivation at 37° C.): 25 µg/mL; MIC (μg/mL) P. vulgaris ([10]; 10 h cultivation at 37° C.): 50 µg/mL; MIC (μg/mL) S. marcescens ([11]; 10 h cultivation at 37° C.): 25 µg/mL

With “PRT756 (KIDYCASSNHGCQHECVNTDDSYSCHCLKGFTLNPDKKTCR; listed as Homo sapiens)” as the substance, how does the MIC [1] read?
The MIC was 12.5 µg/mL.

What about the “MIC (μg/mL) E. coli BL21” value ([2]; 10 h cultivation at 37° C.) of the same substance?
The value was 25 µg/mL.

And the “MIC (μg/mL) P. aeruginosa” value ([3]; 10 h cultivation at 37° C.)?
The value was 12.5 µg/mL.

What about the “MIC (μg/mL) K. pneumonia” value ([4]; 10 h cultivation at 37° C.) of the same substance?
Its value is 50 µg/mL.

And the “MIC (μg/mL) E. cloacae” value ([5]; 10 h cultivation at 37° C.)?
Its value is 12.5 µg/mL.

And the “MIC (μg/mL) A. hydrophila” value ([6]; 10 h cultivation at 37° C.)?
The value was 50 µg/mL.

And the “MIC (μg/mL) C. diversus” value ([7]; 10 h cultivation at 37° C.)?
The value was 12.5 µg/mL.

What about the “MIC (μg/mL) M. catarrhalis” value ([8]; 10 h cultivation at 37° C.) of the same substance?
The value was 50 µg/mL.

What about the “MIC (μg/mL) P. mirabilis” value ([9]; 10 h cultivation at 37° C.) of the same substance?
The value was 12.5 µg/mL.

And the “MIC (μg/mL) P. vulgaris” value ([10]; 10 h cultivation at 37° C.)?
Its value is 50 µg/mL.

What about the “MIC (μg/mL) S. marcescens” value ([11]; 10 h cultivation at 37° C.) of the same substance?
The value was 12.5 µg/mL.

How did the MIC [1] turn out when “PRT1448 (ACREGRFGQSCQEQCPGISGCRGLTFCLPDPYGCSCGSGWRGSQCQ; listed as Homo sapiens)” was run?
The MIC was 25 µg/mL.

What about the “MIC against E. coli BL21” value ([2]; 10 h cultivation at 37° C.) of the same substance?
Its value is 50 µg/mL.

What about the “MIC against P. aeruginosa” value ([3]; 10 h cultivation at 37° C.) of the same substance?
Its value is 12.5 µg/mL.

What about the “MIC against K. pneumonia” value ([4]; 10 h cultivation at 37° C.) of the same substance?
The value was 25 µg/mL.

What about the “MIC against E. cloacae” value ([5]; 10 h cultivation at 37° C.) of the same substance?
Its value is 50 µg/mL.

What about the “MIC against A. hydrophila” value ([6]; 10 h cultivation at 37° C.) of the same substance?
The value was 12.5 µg/mL.

And the “MIC against C. diversus” value ([7]; 10 h cultivation at 37° C.)?
Its value is 25 µg/mL.

What about the “MIC against M. catarrhalis” value ([8]; 10 h cultivation at 37° C.) of the same substance?
The value was 50 µg/mL.

And the “MIC against P. mirabilis” value ([9]; 10 h cultivation at 37° C.)?
Its value is 25 µg/mL.

What about the “MIC against P. vulgaris” value ([10]; 10 h cultivation at 37° C.) of the same substance?
The value was 12.5 µg/mL.

And the “MIC against S. marcescens” value ([11]; 10 h cultivation at 37° C.)?
Its value is 25 µg/mL.

With “PRT1076 (SCLTCVGHCSNGGSCTMNSKMMPECQCPPHMTGPRCE; listed as Homo sapiens)” as the substance, how does the MIC [1] read?
Its MIC is 12.5 µg/mL.

What about the “MIC E. coli BL21” value [2, 12] of the same substance?
Its value is 25 µg/mL.

And the “MIC P. aeruginosa” value [3, 12]?
Its value is 12.5 µg/mL.

What about the “MIC K. pneumonia” value [4, 12] of the same substance?
The value was 25 µg/mL.

What about the “MIC E. cloacae” value [5, 12] of the same substance?
The value was 12.5 µg/mL.

And the “MIC A. hydrophila” value [6, 12]?
The value was 12.5 µg/mL.

What about the “MIC C. diversus” value [7, 12] of the same substance?
The value was 12.5 µg/mL.

And the “MIC M. catarrhalis” value [8, 12]?
The value was 12.5 µg/mL.

What about the “MIC P. mirabilis” value [9, 12] of the same substance?
Its value is 25 µg/mL.

What about the “MIC P. vulgaris” value [10, 12] of the same substance?
Its value is 12.5 µg/mL.

What about the “MIC S. marcescens” value [11, 12] of the same substance?
Its value is 25 µg/mL.

Which results are given for “PRT695 (DVDECHRVPPPCDLGRCENTPGSFLCVCPAGYQAAPHGASCQ; listed as Homo sapiens)”?
MIC [1]: 25 µg/mL; MIC E. coli BL21 ([2]; 96-well plate, 37° C., 10 h): 12.5 µg/mL; MIC P. aeruginosa ([3]; 96-well plate, 37° C., 10 h): 25 µg/mL; MIC K. pneumonia ([4]; 96-well plate, 37° C., 10 h): 25 µg/mL; MIC E. cloacae ([5]; 96-well plate, 37° C., 10 h): 12.5 µg/mL; MIC A. hydrophila ([6]; 96-well plate, 37° C., 10 h): 25 µg/mL; MIC C. diversus ([7]; 96-well plate, 37° C., 10 h): 50 µg/mL; MIC M. catarrhalis ([8]; 96-well plate, 37° C., 10 h): 50 µg/mL; MIC P. mirabilis ([9]; 96-well plate, 37° C., 10 h): 12.5 µg/mL; MIC P. vulgaris ([10]; 96-well plate, 37° C., 10 h): 50 µg/mL; MIC S. marcescens ([11]; 96-well plate, 37° C., 10 h): 12.5 µg/mL

With “PRT1451 (EARWCSECHSNATCTEDEAVTTCTCQEGFTGDGLTCV; listed as Homo sapiens)” as the substance, how does the MIC [1] read?
Its MIC is 25 µg/mL.

What about the “MIC against E. coli BL21” value ([2]; 10 h cultivation at 37° C.) of the same substance?
The value was 12.5 µg/mL.

What about the “MIC against P. aeruginosa” value ([3]; 10 h cultivation at 37° C.) of the same substance?
The value was 25 µg/mL.

And the “MIC against K. pneumonia” value ([4]; 10 h cultivation at 37° C.)?
Its value is 12.5 µg/mL.

And the “MIC against E. cloacae” value ([5]; 10 h cultivation at 37° C.)?
Its value is 25 µg/mL.

What about the “MIC against A. hydrophila” value ([6]; 10 h cultivation at 37° C.) of the same substance?
The value was 12.5 µg/mL.

What about the “MIC against C. diversus” value ([7]; 10 h cultivation at 37° C.) of the same substance?
Its value is 25 µg/mL.

And the “MIC against M. catarrhalis” value ([8]; 10 h cultivation at 37° C.)?
The value was 12.5 µg/mL.

And the “MIC against P. mirabilis” value ([9]; 10 h cultivation at 37° C.)?
The value was 12.5 µg/mL.

What about the “MIC against P. vulgaris” value ([10]; 10 h cultivation at 37° C.) of the same substance?
Its value is 12.5 µg/mL.

What about the “MIC against S. marcescens” value ([11]; 10 h cultivation at 37° C.) of the same substance?
The value was 12.5 µg/mL.
